The compounds below were run against recombinant Mcl-1 (residues 172-327) (Homo sapiens (Human), UniProt Q07820) (assay: Bak peptide fluorescence polarization anisotropy competition assay, Mcl-1). Conditions: not given.
Type: binding

Chain of recombinant Mcl-1 (residues 172-327) (Q07820 172-327): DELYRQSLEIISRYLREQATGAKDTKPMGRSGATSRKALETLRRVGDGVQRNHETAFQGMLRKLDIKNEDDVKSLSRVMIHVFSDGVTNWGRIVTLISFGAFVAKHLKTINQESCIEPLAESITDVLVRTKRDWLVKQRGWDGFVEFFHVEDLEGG

Cc1cccc(S(=O)(=O)NC(=O)c2c(CCCOc3cc(C)c(Cl)c(C)c3)c3ccc(Cl)cc3n2Cc2cccnc2)c1 [Example 273, 6-chloro-3-(3-(4-chloro-3,5-dimethylphenoxy)propyl)-1-(pyridin-3-ylmethyl)-N-(m-tolylsulfonyl)-1H-indole-2-carboxamide] showed a Ki of 101 to 299 nM.

Same assay, conditions: Table 2, Ki range; FITC-Bak peptide 10 nM, Mcl-1 14 nM; read-out: Ki for inhibition of Mcl-1

Cc1cc(OCCCc2c(C(=O)NS(=O)(=O)c3ccccc3)[nH]c3c(-c4cnn(C)c4)c(Cl)ccc23)cc(C)c1Cl [Example 121, 6-chloro-3-(3-(4-chloro-3,5-dimethylphenoxy)propyl)-7-(1-methyl-1H-pyrazol-4-yl)-N-(phenylsulfonyl)-1H-indole-2-carboxamide] and CCn1nccc1-c1cccc2c(CCCOc3cc(C)c(Cl)c(C)c3)c(C(=O)NS(=O)(=O)c3ccccc3)[nH]c12 [Example 302, 3-(3-(4-chloro-3,5-dimethylphenoxy)propyl)-7-(1-ethyl-1H-pyrazol-5-yl)-N-(phenylsulfonyl)-1H-indole-2-carboxamide] cannot be ordered by Ki: ≤ 100 nM for the first, ≤ 100 nM for the second.

Cc1ccncc1-c1cccc2c(CCCOc3cc(C)c(Cl)c(C)c3)c(C(=O)NS(=O)(=O)c3ccccc3)[nH]c12 [Example 89, 3-(3-(4-chloro-3,5-dimethylphenoxy)propyl)-7-(4-methylpyridin-3-yl)-N-(phenylsulfonyl)-1H-indole-2-carboxamide] and CCCn1nccc1-c1cccc2c(CCCOc3cc(C)c(Cl)c(C)c3)c(C(=O)NS(=O)(=O)c3ccccc3)[nH]c12 [Example 303, 3-(3-(4-chloro-3,5-dimethylphenoxy)propyl)-N-(phenylsulfonyl)-7-(1-propyl-1H-pyrazol-5-yl)-1H-indole-2-carboxamide] cannot be ordered by Ki: ≤ 100 nM for the first, ≤ 100 nM for the second.

Same assay, conditions: read-out: Ki for inhibition of Mcl-1

O=C(O)c1sc2cc(-c3ccccc3)ccc2c1CCCOc1cccc2ccccc12 [Example 13, 3-(3-(naphthalen-1-yloxy)propyl)-6-phenylbenzo[b]thiophene-2-carboxylic acid] and CS(=O)(=O)NC(=O)c1sc2ccccc2c1CCCOc1cccc2ccccc12 [Example 61, N-(methylsulfonyl)-3-(3-(naphthalen-1-yloxy)propyl)benzo[b]thiophene-2-carboxamide] fall in the same range of Ki: 1000 to 9990 nM for the first, 1000 to 9990 nM for the second.

Cc1cc(OCCCc2c(C(=O)NS(C)(=O)=O)n(Cc3cccnc3)c3cc(Cl)ccc23)cc(C)c1Cl [Example 271, 6-chloro-3-(3-(4-chloro-3,5-dimethylphenoxy)propyl)-N-(methylsulfonyl)-1-(pyridin-3-ylmethyl)-1H-indole-2-carboxamide] and Cc1cc(OCCCc2c(C(=O)NS(=O)(=O)c3ccccc3)n(C)c3cc(Cl)ccc23)cc(C)c1Cl [Example 269, 6-chloro-3-(3-(4-chloro-3,5-dimethylphenoxy)propyl)-1-methyl-N-(phenylsulfonyl)-1H-indole-2-carboxamide] fall in the same range of Ki: 301 to 500 nM for the first, 301 to 500 nM for the second.

First: Cc1cc(OCCCc2c(C(=O)NS(=O)(=O)CCCNC3CCCCC3)[nH]c3ccccc23)cc(C)c1Cl [Example 145, 3-(3-(4-chloro-3,5-dimethylphenoxy)propyl)-N-((3-(cyclohexylamino)propyl)sulfonyl)-1H-indole-2-carboxamide]
Second: Cc1cc(OCCCc2c(C(=O)NS(=O)(=O)CCNC(=O)c3ccno3)[nH]c3ccccc23)cc(C)c1Cl [Example 154, N-(2-(N-(3-(3-(4-chloro-3,5-dimethylphenoxy)propyl)-1H-indole-2-carbonyl)sulfamoyl)ethyl)isoxazole-5-carboxamide]
The Ki of the first is higher: 1000 to 9990 nM for the first, 501 to 999 nM for the second. The second binds more tightly here.

First: CS(=O)(=O)NC(=O)c1[nH]c2ccccc2c1CCCOc1ccc(Cl)c2ccccc12 [Example 39, 3-(3-((4-chloronaphthalen-1-yl)oxy)propyl)-N-(methylsulfonyl)-1H-indole-2-carboxamide]
Second: CS(=O)(=O)NC(=O)c1[nH]c2cc(Cl)ccc2c1CCCOc1ccc(Cl)c2ccccc12 [Example 76, 6-chloro-3-(3-((4-chloronaphthalen-1-yl)oxy)propyl)-N-(methylsulfonyl)-1H-indole-2-carboxamide]
The Ki of the first is higher: 501 to 999 nM for the first, 301 to 500 nM for the second.

Cc1cc(OCCCc2c(C(=O)NS(=O)(=O)CCNC(=O)Cc3cn(C)c4ccccc34)[nH]c3ccccc23)cc(C)c1Cl [Example 175, 3-(3-(4-chloro-3,5-dimethylphenoxy)propyl)-N-((2-(2-(1-methyl-1H-indol-3-yl)acetamido)ethyl)sulfonyl)-1H-indole-2-carboxamide] and Cc1cc(OCCCc2c(C(=O)NS(=O)(=O)CCNC(=O)Cc3c[nH]c4ccccc34)[nH]c3ccccc23)cc(C)c1Cl [Example 177, N-((2-(2-(1H-indol-3-yl)acetamido)ethyl)sulfonyl)-3-(3-(4-chloro-3,5-dimethylphenoxy)propyl)-1H-indole-2-carboxamide] fall in the same range of Ki: 101 to 299 nM for the first, 101 to 299 nM for the second.

Compared with Cc1cc(OCCCc2c(C(=O)NS(=O)(=O)CCNC(=O)c3cccn3Cc3ccccc3F)[nH]c3cc(Cl)ccc23)cc(C)c1Cl [Example 248, 6-chloro-3-(3-(4-chloro-3,5-dimethylphenoxy)propyl)-N-((2-(1-(2-fluorobenzyl)-1H-pyrrole-2-carboxamido)ethyl)sulfonyl)-1H-indole-2-carboxamide], Cc1cc(OCCCc2c(C(=O)NS(=O)(=O)CCNC(=O)c3nccn3Cc3ccccc3)[nH]c3ccccc23)cc(C)c1Cl [Example 173, N-((2-(1-benzyl-1H-imidazole-2-carboxamido)ethyl)sulfonyl)-3-(3-(4-chloro-3,5-dimethylphenoxy)propyl)-1H-indole-2-carboxamide] is higher in Ki: 101 to 299 nM for the first, 501 to 999 nM for the second.

Cc1cc(OCCCc2c(C(=O)NS(=O)(=O)C3CCN(C(=O)c4cccn4Cc4ccccc4)CC3)[nH]c3cc(Cl)ccc23)cc(C)c1Cl [Example 215, N-((1-(1-benzyl-1H-pyrrole-2-carbonyl)piperidin-4-yl)sulfonyl)-6-chloro-3-(3-(4-chloro-3,5-dimethylphenoxy)propyl)-1H-indole-2-carboxamide] and Cc1cc(OCCCc2c(C(=O)NS(=O)(=O)c3ccc(OCc4ccccc4)nc3)[nH]c3cc(Cl)ccc23)cc(C)c1Cl [Example 225, N-((6-(benzyloxy)pyridin-3-yl)sulfonyl)-6-chloro-3-(3-(4-chloro-3,5-dimethylphenoxy)propyl)-1H-indole-2-carboxamide] fall in the same range of Ki: 301 to 500 nM for the first, 301 to 500 nM for the second.

Compared with Cc1cc(OCCCc2c(C(=O)NS(=O)(=O)CCNC(=O)c3cccnc3)[nH]c3ccccc23)cc(C)c1Cl [Example 155, 3-(3-(4-chloro-3,5-dimethylphenoxy)propyl)-N-((2-(nicotinamido)ethyl)sulfonyl)-1H-indole-2-carboxamide], Cc1cc(OCCCc2c(C(=O)NS(=O)(=O)CCNC(=O)c3ccc4ccccc4c3)[nH]c3ccccc23)cc(C)c1Cl [Example 162, N-((2-(2-naphthamido)ethyl)sulfonyl)-3-(3-(4-chloro-3,5-dimethylphenoxy)propyl)-1H-indole-2-carboxamide] is lower in Ki: 1000 to 9990 nM for the first, 301 to 500 nM for the second.

COc1ccc(Oc2cccc(S(=O)(=O)NC(=O)c3[nH]c4ccccc4c3CCCOc3cc(C)c(Cl)c(C)c3)c2)cc1 [Example 142, 3-(3-(4-chloro-3,5-dimethylphenoxy)propyl)-N-((3-(4-methoxyphenoxy)phenyl)sulfonyl)-1H-indole-2-carboxamide] and Cc1cc(OCCCc2c(C(=O)NS(=O)(=O)c3ccc(-c4ccccc4)cc3)[nH]c3cc(Cl)ccc23)cc(C)c1Cl [Example 219, N-([1,1′-biphenyl]-4-ylsulfonyl)-6-chloro-3-(3-(4-chloro-3,5-dimethylphenoxy)propyl)-1H-indole-2-carboxamide] fall in the same range of Ki: 301 to 500 nM for the first, 301 to 500 nM for the second.

Cc1cc(OCCCc2c(C(=O)NS(=O)(=O)c3cccc(Br)c3)[nH]c3cc(Cl)ccc23)cc(C)c1Cl [Example 218, N-((3-bromophenyl)sulfonyl)-6-chloro-3-(3-(4-chloro-3,5-dimethylphenoxy)propyl)-1H-indole-2-carboxamide] and Cc1cccc(S(=O)(=O)NC(=O)c2[nH]c3cc(Cl)ccc3c2CCCOc2cc(C)c(Cl)c(C)c2)c1 [Example 217, 6-chloro-3-(3-(4-chloro-3,5-dimethylphenoxy)propyl)-N-(m-tolylsulfonyl)-1H-indole-2-carboxamide] fall in the same range of Ki: 101 to 299 nM for the first, 101 to 299 nM for the second.

First: Cc1cc(OCCCc2c(C(=O)NS(=O)(=O)CCNC(=O)c3cc(C)n(C)c3C)[nH]c3ccccc23)cc(C)c1Cl [Example 192, 3-(3-(4-chloro-3,5-dimethylphenoxy)propyl)-N-((2-(1,2,5-trimethyl-1H-pyrrole-3-carboxamido)ethyl)sulfonyl)-1H-indole-2-carboxamide]
Second: Cc1cc(OCCCc2c(C(=O)NS(=O)(=O)CCNC(=O)c3cnn(Cc4ccccc4)c3)[nH]c3ccccc23)cc(C)c1Cl [Example 184, N-((2-(1-benzyl-1H-pyrazole-4-carboxamido)ethyl)sulfonyl)-3-(3-(4-chloro-3,5-dimethylphenoxy)propyl)-1H-indole-2-carboxamide]
The Ki of the first is lower: 301 to 500 nM for the first, 1000 to 9990 nM for the second.

Compared with Cc1ccc2c(CCCOc3cc(C)c(Cl)c(C)c3)c(C(=O)NS(C)(=O)=O)[nH]c2c1 [Example 117, 3-(3-(4-chloro-3,5-dimethylphenoxy)propyl)-6-methyl-N-(methylsulfonyl)-1H-indole-2-carboxamide], Cc1cc(OCCCc2c(C(=O)NS(C)(=O)=O)[nH]c3c(C)c(Cl)ccc23)cc(C)c1Cl [Example 119, 6-chloro-3-(3-(4-chloro-3,5-dimethylphenoxy)propyl)-7-methyl-N-(methylsulfonyl)-1H-indole-2-carboxamide] is lower in Ki: 301 to 500 nM for the first, 101 to 299 nM for the second. The second binds more tightly here.

Compared with CS(=O)(=O)NC(=O)c1[nH]c2cc(Cl)ccc2c1CCCOc1cccc2c1CCCC2 [Example 75, 6-chloro-N-(methylsulfonyl)-3-(3-((5,6,7,8-tetrahydronaphthalen-1-yl)oxy)propyl)-1H-indole-2-carboxamide], Cc1cc(OCCCc2c(C(=O)NS(C)(=O)=O)[nH]c3cc(Cl)ccc23)ccc1Cl [Example 53, 6-chloro-3-(3-(4-chloro-3-methylphenoxy)propyl)-N-(methylsulfonyl)-1H-indole-2-carboxamide] is lower in Ki: 501 to 999 nM for the first, 301 to 500 nM for the second. The second binds more tightly here.

Cc1cc(OCCCc2c(C(=O)NS(=O)(=O)c3ccc(OCc4ccccc4)nc3)[nH]c3ccccc23)cc(C)c1Cl [Example 144, N-((6-(benzyloxy)pyridin-3-yl)sulfonyl)-3-(3-(4-chloro-3,5-dimethylphenoxy)propyl)-1H-indole-2-carboxamide] showed a Ki of 301 to 500 nM.

From US10844032B2, “Substituted benzofuran, benzothiophene and indole Mcl-1 inhibitors” (Vanderbilt University, priority 2012, dated 2020)
